Measured values as given in US20230302021A1, “COMPOSITIONS AND METHODS FOR TREATING CASTRATION-RESISTANT PROSTATE CANCER” (Purdue Research Foundation, priority 2022, published 2023).

What was measured:
22RV1 cells = test: Cell proliferation / viability (MTT) assay; format: cell-based; conditions: for proliferation of 22RV1 cells: ENZ-resistant 22RV1 cells, FIG. 1
Protocol: Cell viability assay: An MTT assay was performed to evaluate the effect of drugs on cell viability. Ten thousand cells per well were plated in a 96-well plate and treated with drugs the following day. The MTT solution (0.5 mg/ml) was then applied to the cells for 1 h at 37° C. with 5% CO2. Precipitated formazan was dissolved in DMSO and quantified at 570 nm using a microplate reader (Beckman-Coulter). Combination index: The data obtained from the MTT assay were used to calculate cell viability and also used to calculate combination index (CI). The Chou-Talalay method was applied to determine the CI using CompuSyn software (Biosoft).

SOAT1 = target: T1, SOAT1 (Homo sapiens, UniProt P35610); conditions: cited from earlier work
T1 sequence (P35610 1-550): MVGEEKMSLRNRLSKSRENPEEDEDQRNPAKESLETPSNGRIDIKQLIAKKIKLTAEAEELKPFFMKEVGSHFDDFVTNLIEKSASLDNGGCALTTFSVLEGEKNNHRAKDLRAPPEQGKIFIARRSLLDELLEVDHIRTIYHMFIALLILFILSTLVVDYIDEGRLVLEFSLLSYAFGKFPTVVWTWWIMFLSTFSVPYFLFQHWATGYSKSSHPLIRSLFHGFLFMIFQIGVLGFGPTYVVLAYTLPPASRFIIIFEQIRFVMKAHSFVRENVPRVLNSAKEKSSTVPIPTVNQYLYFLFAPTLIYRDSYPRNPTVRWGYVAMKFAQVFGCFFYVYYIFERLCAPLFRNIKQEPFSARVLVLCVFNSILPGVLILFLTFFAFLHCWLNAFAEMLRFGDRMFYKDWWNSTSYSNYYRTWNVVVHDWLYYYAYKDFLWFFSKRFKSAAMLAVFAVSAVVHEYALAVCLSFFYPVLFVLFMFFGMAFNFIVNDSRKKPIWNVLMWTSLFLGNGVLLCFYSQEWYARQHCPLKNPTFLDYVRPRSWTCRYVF

[1] = rats, dogs, and humans; cited from earlier work
AR signaling = test: qPCR of genes related to AR signaling in 22RV1 cells; format: cell-based; conditions: 20 μM ENZ in presence or absence of 4 μM avasimibe, 24 h
22RV1-derived xenograft = test: 22RV1-derived mouse xenograft model; format: in vivo; conditions: castrated nude mice, daily for 3 weeks; ENZ 25 mg/kg/day oral gavage, AVA 20 mg/kg/day intraperitoneal
Protocol: All procedures were approved by the Purdue Animal Care and Use Committee. Five-week-old male nude mice (Jackson Laboratory) were purchased for the experiment. […] ENZ stock prepared in DMSO was diluted in corn oil for oral gavage and AVA solution was prepared. Once the tumors reached approximately 50-100 mm^3, the mice were randomly divided into four groups for daily drug administration for 3 weeks: (i) vehicle oral gavage (corn oil)+vehicle intraperitoneal injection (2% tween-80 (v/v) and 3.2 mg/mL 2-hydroxypropyl-β-cyclodextrin in PBS); (ii) ENZ alone (25 mg/kg body weight/day) by oral gavage; (iii) AVA alone (20 mg/kg body weight/day) by intraperitoneal injection; (iv) ENZ (25 mg/kg/day)+AVA (20 mg/kg/day). Tumors were monitored every two days with a caliper and tumor volumes were calculated with the formula V=0.5×L×W^2 (where V is volume, L is length, W is the width). At the end of the study, mice were euthanized and tumor tissues were excised and weighted.

SMILES	proliferation of 22RV1 cells (22RV1 cells)	IC50 (SOAT1) [µM]	safety when administered [1]	AR expression (mRNA) (AR signaling)	AR-V7 expression (mRNA) (AR signaling)	Nkx3.1 expression (mRNA) (AR signaling)	Psa expression (mRNA) (AR signaling)	tumor growth (appearance, average tumor volume, tumor weight) (22RV1-derived xenograft)	IC50 value for SOAT1 relative to the corresponding IC50 value for SOAT2 (SOAT1; SOAT1 vs SOAT2 selectivity)	proliferation of shRNA-transfected 22RV1 cells (22RV1 cells; shCTRL or shSOAT1 with DMSO or ENZ, FIG. 5B)
CC(C)c1cc(C(C)C)c(CC(=O)NS(=O)(=O)Oc2c(C(C)C)cccc2C(C)C)c(C(C)C)c1 [AVA, avasimibe]	slightly suppressed cell proliferation	24	considered safe	did not change	did not change	downregulated	downregulated	did not sufficiently delay the tumor growth	–	–
CCOC(=O)OC(=O)OCC [pyrocarbonate, diethyl pyrocarbonate]	–	–	–	–	–	–	–	–	at least twice or higher	–
CNC(=O)c1ccc(N2C(=S)N(c3ccc(C#N)c(C(F)(F)F)c3)C(=O)C2(C)C)cc1F [ENZ, enzalutamide]	resistant	–	–	–	–	–	–	did not sufficiently delay the tumor growth	–	little effect on the proliferation
